Tests used:
[1] = design: method as in PMID 16673812; conditions: oral administration; cited from earlier work

| melting point [°C] | Structure (SMILES) | LD50 [1] [mg/kg] |
| --- | --- | --- |
| 185 | COC(=O)C(Cc1ccc(O)cc1)NC(=O)c1ccc(C(=O)NC(Cc2ccc(O)cc2)C(=O)OC)cc1 (stereo not drawn) |  |
| 115 | COC(=O)C(NC(=O)c1ccc(C(=O)NC(C(=O)OC)C(C)C)cc1)C(C)C (stereo not drawn) |  |
| 169 | COC(=O)C(CO)NC(=O)c1ccc(C(=O)NC(CO)C(=O)OC)cc1 (stereo not drawn) |  |
| 86 | COC(=O)CNC(=S)c1ccc(C(=S)NCC(=O)OC)cc1 |  |
| 174 | COC(=O)C(C)NC(=S)c1ccc(C(=S)NC(C)C(=O)OC)cc1 (stereo not drawn) |  |
| 170 | COC(=O)C(Cc1ccc(O)cc1)NC(=S)c1ccc(C(=S)NC(Cc2ccc(O)cc2)C(=O)OC)cc1 (stereo not drawn) |  |
| 160 | COC(=O)C(NC(=S)c1ccc(C(=S)NC(C(=O)OC)C(C)C)cc1)C(C)C (stereo not drawn) |  |
| 179 | COC(=O)C(CO)NC(=S)c1ccc(C(=S)NC(CO)C(=O)OC)cc1 (stereo not drawn) |  |
|  | O=C(O)c1ccc(C(=O)O)cc1 [TPA, Terephthalic acid] | > 5000 |

From paper PMC10385826, “Towards Symmetric Thioamides: Microwave-Aided Synthesis of Terephthalic Acid Derivatives” (Pharmaceuticals, 2023)
